Measured values as given in US7074789B2, “Kinase inhibitors” (Amgen Inc., priority 1999, dated 2006).

Key:
Assay type in all cases: biochemical
[1] = molecular target: T1, EPHB4 (Homo sapiens, UniProt P54760); test: Kinase inhibition assay (33P transfer), EPHB4; details: read-out: EPHB4-1
T1 construct: Kinases are expressed as either kinase domains or full length constructs; made in house
T1 sequence (P54760 16-987): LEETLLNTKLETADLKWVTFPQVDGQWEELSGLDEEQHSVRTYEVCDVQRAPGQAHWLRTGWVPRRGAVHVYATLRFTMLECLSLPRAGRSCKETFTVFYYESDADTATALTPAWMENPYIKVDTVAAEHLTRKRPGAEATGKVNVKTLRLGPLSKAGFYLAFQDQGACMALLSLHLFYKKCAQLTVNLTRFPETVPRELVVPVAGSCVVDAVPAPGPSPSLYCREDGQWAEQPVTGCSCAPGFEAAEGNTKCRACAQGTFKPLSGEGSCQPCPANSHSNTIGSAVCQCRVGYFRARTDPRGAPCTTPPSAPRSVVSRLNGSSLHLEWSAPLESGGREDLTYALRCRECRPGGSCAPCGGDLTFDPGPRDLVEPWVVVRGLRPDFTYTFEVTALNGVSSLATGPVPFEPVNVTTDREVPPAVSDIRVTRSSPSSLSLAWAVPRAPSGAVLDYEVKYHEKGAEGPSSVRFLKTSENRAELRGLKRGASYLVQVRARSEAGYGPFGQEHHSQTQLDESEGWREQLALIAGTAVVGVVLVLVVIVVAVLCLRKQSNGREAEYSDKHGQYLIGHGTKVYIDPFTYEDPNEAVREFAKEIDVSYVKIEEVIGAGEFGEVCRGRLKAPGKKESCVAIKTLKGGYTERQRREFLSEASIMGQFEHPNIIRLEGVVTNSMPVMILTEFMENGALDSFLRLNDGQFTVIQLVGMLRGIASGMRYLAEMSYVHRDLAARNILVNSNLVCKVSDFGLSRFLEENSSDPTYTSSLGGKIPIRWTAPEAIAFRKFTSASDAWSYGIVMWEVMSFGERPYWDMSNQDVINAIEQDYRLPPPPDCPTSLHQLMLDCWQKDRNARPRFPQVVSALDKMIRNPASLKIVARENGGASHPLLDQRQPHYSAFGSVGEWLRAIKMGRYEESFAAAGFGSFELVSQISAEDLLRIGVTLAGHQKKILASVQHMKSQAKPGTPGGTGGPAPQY

[2] = molecular target: T2, Lck (Homo sapiens, UniProt P06239); test: Kinase inhibition assay (33P transfer), Lck; details: Table 3; read-out: Lck-1
T2 construct: Kinases are expressed as either kinase domains or full length constructs; made in house
T2 sequence (P06239 whole entry, species assumed, the tested form may be a part): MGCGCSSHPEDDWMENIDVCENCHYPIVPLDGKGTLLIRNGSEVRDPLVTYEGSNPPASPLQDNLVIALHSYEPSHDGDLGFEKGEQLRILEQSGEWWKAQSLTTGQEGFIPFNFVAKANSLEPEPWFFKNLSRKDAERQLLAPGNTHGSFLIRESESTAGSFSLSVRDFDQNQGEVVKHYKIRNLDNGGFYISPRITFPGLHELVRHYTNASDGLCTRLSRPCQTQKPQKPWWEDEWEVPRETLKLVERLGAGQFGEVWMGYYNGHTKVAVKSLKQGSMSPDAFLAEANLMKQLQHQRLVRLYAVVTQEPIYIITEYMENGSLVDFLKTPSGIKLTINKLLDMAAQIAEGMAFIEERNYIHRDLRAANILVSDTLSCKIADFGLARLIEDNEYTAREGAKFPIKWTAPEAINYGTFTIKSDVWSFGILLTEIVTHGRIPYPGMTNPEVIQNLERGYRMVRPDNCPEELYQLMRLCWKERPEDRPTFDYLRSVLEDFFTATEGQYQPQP
Method in brief: (§1)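 Measured by scintillation: radiolabelled phosphate added by tagged recombinant kinases to poly(Glu,Tyr) 4:1 or poly(Arg,Ser) 3:1 attached to microtiter wells, counted once free label was washed away with 0.5% phosphoric acid.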

[3] = molecular target: T3, EGFR (Homo sapiens, UniProt P00533); test: Kinase inhibition assay (33P transfer), EGFR; details: Table 2, kinase inhibition class; read-out: EGFR-1
T3 construct: Kinases are expressed as either kinase domains or full length constructs; made in house
T3 sequence (P00533 25-1210, species assumed): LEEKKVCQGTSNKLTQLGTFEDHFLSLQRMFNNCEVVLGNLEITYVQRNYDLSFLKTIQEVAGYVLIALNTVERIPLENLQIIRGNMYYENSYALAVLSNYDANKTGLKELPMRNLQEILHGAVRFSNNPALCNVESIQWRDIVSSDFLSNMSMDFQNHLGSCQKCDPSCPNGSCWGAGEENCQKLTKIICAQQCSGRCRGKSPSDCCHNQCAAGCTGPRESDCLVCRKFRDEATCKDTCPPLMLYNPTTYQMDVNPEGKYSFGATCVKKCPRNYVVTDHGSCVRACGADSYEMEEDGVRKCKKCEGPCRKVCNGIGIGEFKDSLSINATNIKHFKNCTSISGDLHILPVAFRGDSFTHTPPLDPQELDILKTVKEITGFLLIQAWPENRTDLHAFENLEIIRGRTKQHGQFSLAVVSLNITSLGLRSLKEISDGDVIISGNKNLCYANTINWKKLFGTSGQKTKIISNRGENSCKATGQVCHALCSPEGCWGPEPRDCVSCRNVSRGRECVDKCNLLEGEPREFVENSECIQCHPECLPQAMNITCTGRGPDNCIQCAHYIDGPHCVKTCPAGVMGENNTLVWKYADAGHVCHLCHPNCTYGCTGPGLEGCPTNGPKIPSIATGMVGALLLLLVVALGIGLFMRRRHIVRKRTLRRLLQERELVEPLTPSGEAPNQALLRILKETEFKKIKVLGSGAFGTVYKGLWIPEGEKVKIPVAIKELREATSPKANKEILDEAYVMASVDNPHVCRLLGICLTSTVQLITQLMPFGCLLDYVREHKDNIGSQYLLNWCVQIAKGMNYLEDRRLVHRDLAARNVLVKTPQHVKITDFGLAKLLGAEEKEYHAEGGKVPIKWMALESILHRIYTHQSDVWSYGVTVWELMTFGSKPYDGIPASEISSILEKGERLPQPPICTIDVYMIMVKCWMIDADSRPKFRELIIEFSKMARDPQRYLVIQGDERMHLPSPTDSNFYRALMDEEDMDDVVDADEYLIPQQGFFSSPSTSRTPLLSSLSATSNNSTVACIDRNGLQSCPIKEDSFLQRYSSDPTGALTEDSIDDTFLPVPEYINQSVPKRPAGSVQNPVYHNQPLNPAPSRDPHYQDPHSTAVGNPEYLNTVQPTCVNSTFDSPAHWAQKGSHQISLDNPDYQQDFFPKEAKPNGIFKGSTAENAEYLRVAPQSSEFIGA
Method in brief: (§2)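 Steps: coat wells with poly(Glu,Tyr) 4:1 or poly(Arg,Ser) 3:1; add purified kinase, [33P]ATP and inhibitor; incubate; wash with 0.5% phosphoric acid; add liquid scintillant; count. IC50 corresponds to half-maximal reduction of bound 33P.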

[4] = molecular target: T4, Itk (Homo sapiens, UniProt Q08881); test: Kinase inhibition assay (33P transfer), Itk; details: Table 3; read-out: Itk-1
T4 construct: Kinases are expressed as either kinase domains or full length constructs; made in house
T4 sequence (Q08881 1-620): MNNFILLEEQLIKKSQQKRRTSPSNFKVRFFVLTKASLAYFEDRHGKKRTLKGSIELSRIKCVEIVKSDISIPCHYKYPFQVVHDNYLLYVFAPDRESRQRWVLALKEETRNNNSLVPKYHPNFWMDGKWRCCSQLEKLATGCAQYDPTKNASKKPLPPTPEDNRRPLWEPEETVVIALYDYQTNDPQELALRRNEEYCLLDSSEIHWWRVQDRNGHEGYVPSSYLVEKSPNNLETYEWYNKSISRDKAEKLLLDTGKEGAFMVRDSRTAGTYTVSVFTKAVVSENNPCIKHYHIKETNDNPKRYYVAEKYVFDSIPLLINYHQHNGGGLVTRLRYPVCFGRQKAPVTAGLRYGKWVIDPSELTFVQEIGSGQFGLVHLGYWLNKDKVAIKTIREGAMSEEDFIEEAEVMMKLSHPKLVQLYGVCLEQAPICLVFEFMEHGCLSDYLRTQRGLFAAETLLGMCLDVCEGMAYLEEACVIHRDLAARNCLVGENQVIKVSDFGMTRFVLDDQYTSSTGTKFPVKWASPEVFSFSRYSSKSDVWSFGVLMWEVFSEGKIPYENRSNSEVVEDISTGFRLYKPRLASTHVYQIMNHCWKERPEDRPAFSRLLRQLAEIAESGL
Method in brief: as §2

[5] = molecular target: T5, c-Met (Homo sapiens, UniProt P08581); test: Kinase inhibition assay (33P transfer), c-Met; details: Table 2, kinase inhibition class; read-out: Met-1
T5 construct: Kinases are expressed as either kinase domains or full length constructs; made in house
Method in brief: as §2

[6] = molecular target: T6, Zap-70 (Homo sapiens, UniProt P43403); test: Kinase inhibition assay (33P transfer), Zap-70; details: Table 3; read-out: Zap-1
T6 construct: Kinases are expressed as either kinase domains or full length constructs; made in house
T6 sequence (P43403 1-619): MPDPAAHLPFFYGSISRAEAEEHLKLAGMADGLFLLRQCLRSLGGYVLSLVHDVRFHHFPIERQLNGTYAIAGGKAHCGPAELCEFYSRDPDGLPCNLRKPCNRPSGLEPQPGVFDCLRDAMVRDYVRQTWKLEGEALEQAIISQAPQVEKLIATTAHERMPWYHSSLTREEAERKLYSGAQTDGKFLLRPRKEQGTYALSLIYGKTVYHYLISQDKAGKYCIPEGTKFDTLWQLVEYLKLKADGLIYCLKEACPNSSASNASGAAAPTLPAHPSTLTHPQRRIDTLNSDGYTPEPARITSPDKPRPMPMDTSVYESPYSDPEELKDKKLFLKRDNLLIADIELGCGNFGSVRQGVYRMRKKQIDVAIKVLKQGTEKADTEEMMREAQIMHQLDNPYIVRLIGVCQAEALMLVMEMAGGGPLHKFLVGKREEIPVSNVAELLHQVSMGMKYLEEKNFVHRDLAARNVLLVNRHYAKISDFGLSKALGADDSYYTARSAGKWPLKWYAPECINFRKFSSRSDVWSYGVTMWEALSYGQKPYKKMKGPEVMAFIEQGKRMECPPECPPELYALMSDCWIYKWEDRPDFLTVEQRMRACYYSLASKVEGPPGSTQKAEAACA
Method in brief: as §1

[7] = molecular target: T7, AKT (Homo sapiens, UniProt Q9Y243); test: Kinase inhibition assay (33P transfer), AKT; details: Table 2, kinase inhibition class; read-out: AKT3-1
T7 construct: Kinases are expressed as either kinase domains or full length constructs; made in house
T7 sequence (Q9Y243 whole entry, the tested form may be a part): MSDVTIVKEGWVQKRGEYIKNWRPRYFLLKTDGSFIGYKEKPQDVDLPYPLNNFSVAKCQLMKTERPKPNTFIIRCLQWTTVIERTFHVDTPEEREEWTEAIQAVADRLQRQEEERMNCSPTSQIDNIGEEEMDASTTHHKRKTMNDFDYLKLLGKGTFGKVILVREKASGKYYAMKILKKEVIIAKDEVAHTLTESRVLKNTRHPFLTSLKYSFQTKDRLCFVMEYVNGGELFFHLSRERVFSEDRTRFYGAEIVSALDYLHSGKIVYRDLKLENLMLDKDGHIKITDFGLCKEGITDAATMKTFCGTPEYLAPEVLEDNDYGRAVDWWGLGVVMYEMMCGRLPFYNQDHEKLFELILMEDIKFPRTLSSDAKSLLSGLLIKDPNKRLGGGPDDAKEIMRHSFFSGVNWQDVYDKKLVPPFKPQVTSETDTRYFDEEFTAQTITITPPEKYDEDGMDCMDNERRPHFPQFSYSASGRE
Method in brief: as §1

[8] = molecular target: T8, Kdr (Homo sapiens, UniProt P35968); test: Kinase inhibition assay (33P transfer), Kdr; details: Table 3; read-out: KDR-1
T8 construct: Kinases are expressed as either kinase domains or full length constructs; made in house
T8 sequence (P35968 20-1356, species assumed): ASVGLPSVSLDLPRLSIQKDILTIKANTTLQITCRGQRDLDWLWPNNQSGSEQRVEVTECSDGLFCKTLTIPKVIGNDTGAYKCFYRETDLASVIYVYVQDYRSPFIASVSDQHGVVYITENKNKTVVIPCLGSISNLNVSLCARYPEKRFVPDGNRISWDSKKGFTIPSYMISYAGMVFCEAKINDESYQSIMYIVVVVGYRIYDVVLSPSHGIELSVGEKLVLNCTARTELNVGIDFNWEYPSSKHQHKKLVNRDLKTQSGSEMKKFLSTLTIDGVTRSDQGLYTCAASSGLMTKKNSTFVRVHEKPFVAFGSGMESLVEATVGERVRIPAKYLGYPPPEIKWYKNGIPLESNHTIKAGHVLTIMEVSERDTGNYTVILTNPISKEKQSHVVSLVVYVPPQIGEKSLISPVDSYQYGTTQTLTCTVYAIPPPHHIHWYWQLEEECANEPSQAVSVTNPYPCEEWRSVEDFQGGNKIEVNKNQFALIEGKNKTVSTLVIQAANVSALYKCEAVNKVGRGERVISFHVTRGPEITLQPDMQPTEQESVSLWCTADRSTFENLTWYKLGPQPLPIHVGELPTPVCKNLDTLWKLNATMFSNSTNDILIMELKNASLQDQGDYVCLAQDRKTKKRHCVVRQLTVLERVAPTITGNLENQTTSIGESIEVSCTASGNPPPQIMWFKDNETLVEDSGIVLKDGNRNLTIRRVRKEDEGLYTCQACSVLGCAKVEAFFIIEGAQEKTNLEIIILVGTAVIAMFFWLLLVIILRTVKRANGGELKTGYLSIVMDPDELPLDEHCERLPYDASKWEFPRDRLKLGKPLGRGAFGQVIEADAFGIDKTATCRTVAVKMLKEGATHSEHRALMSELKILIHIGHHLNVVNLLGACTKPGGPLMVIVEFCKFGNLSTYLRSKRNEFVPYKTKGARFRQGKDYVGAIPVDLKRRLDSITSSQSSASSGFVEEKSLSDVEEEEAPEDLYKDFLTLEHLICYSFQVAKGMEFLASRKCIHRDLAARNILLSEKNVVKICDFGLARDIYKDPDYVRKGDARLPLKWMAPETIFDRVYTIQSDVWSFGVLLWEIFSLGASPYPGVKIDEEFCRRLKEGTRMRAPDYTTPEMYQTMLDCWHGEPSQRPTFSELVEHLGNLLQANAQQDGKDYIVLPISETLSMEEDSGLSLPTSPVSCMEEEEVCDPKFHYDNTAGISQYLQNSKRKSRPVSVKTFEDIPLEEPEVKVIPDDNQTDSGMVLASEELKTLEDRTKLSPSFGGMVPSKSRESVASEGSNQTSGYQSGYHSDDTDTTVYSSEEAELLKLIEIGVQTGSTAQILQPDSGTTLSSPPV
Method in brief: as §1

[9] = molecular target: T9, Tek (Homo sapiens, UniProt Q02763); test: Kinase inhibition assay (33P transfer), Tek; details: read-out: Tek-1
T9 construct: Kinases are expressed as either kinase domains or full length constructs; made in house
Method in brief: as §2

[10] = molecular target: T10, IGFR-1 (Homo sapiens, UniProt P08069); test: Kinase inhibition assay (33P transfer), IGFR-1; details: Table 2, kinase inhibition class
T10 construct: Kinases are expressed as either kinase domains or full length constructs; made in house
T10 sequence (P08069 31-1367): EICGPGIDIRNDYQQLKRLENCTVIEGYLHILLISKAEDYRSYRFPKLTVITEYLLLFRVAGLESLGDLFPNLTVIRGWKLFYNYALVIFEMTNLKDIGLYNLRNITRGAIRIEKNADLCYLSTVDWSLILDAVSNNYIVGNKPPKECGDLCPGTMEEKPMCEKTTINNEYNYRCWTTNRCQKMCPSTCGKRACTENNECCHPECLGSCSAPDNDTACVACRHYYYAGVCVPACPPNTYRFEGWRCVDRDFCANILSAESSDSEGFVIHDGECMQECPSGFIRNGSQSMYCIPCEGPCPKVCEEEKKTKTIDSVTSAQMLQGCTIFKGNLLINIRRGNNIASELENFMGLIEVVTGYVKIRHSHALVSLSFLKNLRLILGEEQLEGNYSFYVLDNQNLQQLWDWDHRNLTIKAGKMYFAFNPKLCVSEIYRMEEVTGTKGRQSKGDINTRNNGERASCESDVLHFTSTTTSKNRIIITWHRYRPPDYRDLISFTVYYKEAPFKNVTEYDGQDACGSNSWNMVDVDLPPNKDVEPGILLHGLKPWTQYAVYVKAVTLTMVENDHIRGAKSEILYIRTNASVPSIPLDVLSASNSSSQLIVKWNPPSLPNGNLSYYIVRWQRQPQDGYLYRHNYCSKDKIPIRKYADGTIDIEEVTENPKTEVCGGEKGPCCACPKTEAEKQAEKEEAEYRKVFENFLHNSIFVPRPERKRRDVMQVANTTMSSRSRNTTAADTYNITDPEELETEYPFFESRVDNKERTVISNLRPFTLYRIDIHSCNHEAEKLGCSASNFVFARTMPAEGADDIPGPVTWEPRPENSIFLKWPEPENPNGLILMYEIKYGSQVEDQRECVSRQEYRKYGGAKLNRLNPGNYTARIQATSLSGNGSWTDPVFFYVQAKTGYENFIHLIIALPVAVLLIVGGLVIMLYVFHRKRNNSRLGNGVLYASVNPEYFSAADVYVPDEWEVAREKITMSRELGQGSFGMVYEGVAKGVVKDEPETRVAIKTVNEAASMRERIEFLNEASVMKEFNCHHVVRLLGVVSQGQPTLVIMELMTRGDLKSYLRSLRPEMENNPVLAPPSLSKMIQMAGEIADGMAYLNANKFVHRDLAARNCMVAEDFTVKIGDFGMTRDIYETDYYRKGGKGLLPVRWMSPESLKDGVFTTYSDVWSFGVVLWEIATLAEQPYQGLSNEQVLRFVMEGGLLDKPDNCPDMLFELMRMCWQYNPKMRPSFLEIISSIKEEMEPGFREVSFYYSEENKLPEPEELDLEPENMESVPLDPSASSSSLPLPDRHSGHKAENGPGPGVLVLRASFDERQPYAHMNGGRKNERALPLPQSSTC

| Compound | IC50 [1] | IC50 [2] | IC50 [3] | IC50 [4] | IC50 [5] | IC50 [6] | IC50 [7] | IC50 [8] | IC50 [9] | IC50 [10] |
| --- | --- | --- | --- | --- | --- | --- | --- | --- | --- | --- |
| COc1ccc(Nc2ncnc(Nc3ccc(Br)cc3F)n2)cc1OC [Compound 117] | 8.33 to 10.7 µM | 5.71 to 8.33 µM | 5.71 to 8.33 µM | > 10.7 µM | 8.33 to 10.7 µM | 8.33 to 10.7 µM | 5.71 to 8.33 µM | 0.952 to 5.71 µM | > 10.7 µM | > 10.7 µM |
| COc1cc(Nc2ncnc(Nc3ccc(-c4ccccc4)cc3)n2)cc(OC)c1OC [Compound 100] | 0.931 to 5.59 µM | > 10.5 µM | 8.15 to 10.5 µM | > 10.5 µM | > 10.5 µM | 0.931 to 5.59 µM | 5.59 to 8.15 µM | 0.931 to 5.59 µM | > 10.5 µM | 5.59 to 8.15 µM |
| COc1cc(Nc2ncnc(N3CCC(O)CC3)n2)cc(OC)c1OC [Compound 208] | > 12.5 µM | > 12.5 µM | > 12.5 µM | > 12.5 µM | 9.68 to 12.5 µM | > 12.5 µM | > 12.5 µM | 1.11 to 6.64 µM | > 12.5 µM | > 12.5 µM |
| COc1ccc(CNc2ncnc(Nc3cc(OC)c(OC)c(OC)c3)n2)cc1 [Compound 80] | > 11.3 µM | > 11.3 µM | > 11.3 µM | > 11.3 µM | > 11.3 µM | > 11.3 µM | > 11.3 µM | > 11.3 µM | > 11.3 µM | > 11.3 µM |
| COc1cc(Nc2ncnc(Nc3[nH]ncc3-c3cccs3)n2)cc(OC)c1OC [Compound 368] | > 10.6 µM | 8.23 to 10.6 µM | > 10.6 µM | > 10.6 µM | > 10.6 µM | > 10.6 µM | > 10.6 µM | > 10.6 µM | > 10.6 µM | > 10.6 µM |
| Oc1ccc(Nc2ncnc(Nc3ccc(OCc4ccccc4)cc3)n2)cc1 [Compound 158] | 1.04 to 6.23 µM | 9.08 to 11.7 µM | 1.04 to 6.23 µM | > 11.7 µM | 1.04 to 6.23 µM | 1.04 to 6.23 µM | 1.04 to 6.23 µM | 1.04 to 6.23 µM | 6.23 to 9.08 µM | 6.23 to 9.08 µM |
| CCOc1ccc(Nc2ncnc(-n3c(N)nc4ccccc43)n2)cc1OCC [Compound 299] | > 11.5 µM | 8.94 to 11.5 µM | 6.13 to 8.94 µM | > 11.5 µM | 1.02 to 6.13 µM | 1.02 to 6.13 µM | 1.02 to 6.13 µM | 1.02 to 6.13 µM | 6.13 to 8.94 µM | 6.13 to 8.94 µM |
| COc1cc(Nc2ncnc(Nc3c(C)n(C)n(-c4ccccc4)c3=O)n2)cc(OC)c1OC [Compound 256] | > 9.71 µM | > 9.71 µM | > 9.71 µM | > 9.71 µM | > 9.71 µM | > 9.71 µM | > 9.71 µM | 7.55 to 9.71 µM | > 9.71 µM | > 9.71 µM |
| COc1cc(Nc2ncnc(N(CC(=O)OC(C)(C)C)c3ccc4c(c3)OCO4)n2)cc(OC)c1OC [Compound 309] | > 8.8 µM | 6.84 to 8.8 µM | 4.69 to 6.84 µM | > 8.8 µM | > 8.8 µM | > 8.8 µM | > 8.8 µM | 6.84 to 8.8 µM | > 8.8 µM | > 8.8 µM |
| COc1cc(Nc2ncnc(Nc3nc4ccc(F)cc4s3)n2)cc(OC)c1OC [Compound 317] | 5.6 to 8.17 µM | 0.934 to 5.6 µM | > 10.5 µM | > 10.5 µM | 0.934 to 5.6 µM | > 10.5 µM | > 10.5 µM | 0.934 to 5.6 µM | 8.17 to 10.5 µM | 0.934 to 5.6 µM |
| COC(=O)c1ccc(Nc2ncnc(Nc3cc(-c4ccco4)n[nH]3)n2)cc1 [Compound 366] | 1.06 to 6.36 µM | 6.36 to 9.27 µM | > 11.9 µM | > 11.9 µM | > 11.9 µM | 6.36 to 9.27 µM | > 11.9 µM | > 11.9 µM | > 11.9 µM | 1.06 to 6.36 µM |
| COc1cc(Nc2ncnc(N(CC(=O)OC(C)(C)C)c3ccc(Cl)cc3)n2)cc(OC)c1OC [Compound 291] | 6.97 to 8.96 µM | 4.78 to 6.97 µM | 0.797 to 4.78 µM | > 8.96 µM | > 8.96 µM | > 8.96 µM | > 8.96 µM | 4.78 to 6.97 µM | 6.97 to 8.96 µM | > 8.96 µM |
| COc1ccc(Oc2ncnc(Nc3cc(OC)c(OC)c(OC)c3)n2)cc1 [Compound 174] | > 11.7 µM | > 11.7 µM | 6.24 to 9.11 µM | > 11.7 µM | > 11.7 µM | > 11.7 µM | > 11.7 µM | < 1.04 µM | > 11.7 µM | > 11.7 µM |
| COc1cc(Nc2ncnc(Nc3ccc(S(=O)(=O)NC(C)=O)cc3)n2)cc(OC)c1OC [Compound 255] | > 9.48 µM | > 9.48 µM | > 9.48 µM | > 9.48 µM | > 9.48 µM | > 9.48 µM | > 9.48 µM | < 0.843 µM | > 9.48 µM | > 9.48 µM |
| COc1cc(NC(=O)Nc2ncnc(Nc3cc(OC)c(OC)c(OC)c3)n2)cc(OC)c1 [Compound 22] | > 9.86 µM | > 9.86 µM | > 9.86 µM | > 9.86 µM | > 9.86 µM | > 9.86 µM | > 9.86 µM | > 9.86 µM | 7.67 to 9.86 µM | > 9.86 µM |
| COc1cc(Nc2ncnc(Nc3ccc(NCc4ccccc4)cc3)n2)cc(OC)c1OC [Compound 93] | > 9.81 µM | > 9.81 µM | > 9.81 µM | > 9.81 µM | > 9.81 µM | > 9.81 µM | > 9.81 µM | > 9.81 µM | > 9.81 µM | > 9.81 µM |
